Measurements: a melting point compilation (Tetko et al.; mined from patent text by program, amines drawn as free bases though some values may be those of a salt)

First: CCCNC(=O)C(C)=Cc1ccc2c(c1)c(Cc1ccc(C(=O)O)cc1OC)cn2CC(=O)N(C)C
Second: COc1ccc2c(c1)c(CC(=O)NCC(C)(C)S)c(C)n2C(=O)c1ccc(Cl)cc1
The melting point of the first is higher: 232 to 235 °C for the first, 177 to 178 °C for the second.

Compared with `O=C1NCCn2c1cc1ccccc12`, `N#Cc1cc[nH]c1-c1cc2ccccc2o1` is lower in melting point: 228 to 230 °C for the first, 157 to 160 °C for the second.

First: CN(C)c1ccc(-c2cccc3c2C2(COc4cc5c(cc42)OCCO5)C(=O)N3Cc2ccccn2)cn1 (stereo not given)
Second: O=C1C(c2cc3c(cc2O)OCCO3)c2c(F)cccc2N1C(c1ccccc1)c1ccccc1 (stereo not given)
The melting point of the first is higher: 187 to 188 °C for the first, 115 to 118 °C for the second.

First: CCC(Cc1cc(C(C)(C)C)c(O)c(C(C)(C)C)c1)[N+](=O)[O-] (stereo not given)
Second: CC(C)(C)c1cc(-c2nn(CC3COC(=O)O3)c3ncccc23)cc(C(C)(C)C)c1O (stereo not given)
The melting point of the first is lower: 55 to 60 °C for the first, 140 to 141 °C for the second.

First: CCOC(=O)C=Cc1ccc(C(=O)c2ccc3c(c2)C2(C)C4(C)CCC(C4)C2(C)O3)cc1 (stereo not given)
Second: CCOC(=O)C=Cc1ccc(C=Cc2ccc(C=CC(=O)O)cc2)cc1
The melting point of the first is lower: 115 to 116 °C for the first, 245 to 248 °C for the second.

First: CN(c1cc(OCC(N)=O)cc2cc(C3=NCC(CN4CCS(=O)CC4)S3)[nH]c12)S(=O)(=O)c1ccccn1 (stereo not given)
Second: c1ccc2c(OC[C@H]3CCCN3c3ncnc4[nH]cnc34)ccc(CN3CCOCC3)c2c1
The melting point of the first is higher: 160 to 161 °C for the first, 134 to 138 °C for the second.

First: O=C(O)C(Cc1ccccc1)Oc1ccc2cc(-c3nc(-c4ccccc4)sc3Br)ccc2c1Br (stereo not given)
Second: CC(C)(C)NCC(O)COc1ccc2c(=O)cc(-c3ccc(OCc4ccccc4)c(OCc4ccccc4)c3)oc2c1 (stereo not given)
The melting point of the first is higher: 221 to 223 °C for the first, 159 to 161 °C for the second.

Compared with `COc1nc(C)cnc1NS(=O)(=O)c1cccnc1-c1ccc(N(C)C)cc1`, `COc1cccc(COc2ncc(F)c(NS(N)(=O)=O)n2)c1` is lower in melting point: 183 to 184 °C for the first, 126 to 130 °C for the second.

First: CC1(C)CCc2c(ccc3c2C(=O)C=C(O)C3=O)O1
Second: CN(Cc1ccc(NC(=O)C2=Cc3cc(-c4ccc5c(c4)CCC(C)(C)O5)ccc3S(=O)(=O)CC2)cc1)C1CCOCC1
The melting point of the first is lower: 184 to 187 °C for the first, 222 to 226 °C for the second.

Compared with `COc1cc2cc(-c3ccc(OCC(O)CNC(C)(C)C)cc3)n(C)c(=O)c2cc1OC` (stereo not given), `COC(=O)Cc1c(C)n(-c2nc(OC)nc3ccccc23)c2ccc(OC)cc12` is lower in melting point: 165 to 166 °C for the first, 152 to 154 °C for the second.

First: CCCCS(=O)c1ccc(C#N)nc1 (stereo not given)
Second: CCCCn1cnc2c(SCc3ccc4nsc(Br)c4c3)ncnc21
The melting point of the first is lower: 54 to 55 °C for the first, 118 to 119 °C for the second.

First: Cc1c(NC(=O)CC(C)(C)C)c(C)c2c(c1-c1ccc(N(C)C)cc1)OCC2c1ccc(C(C)C)cc1 (stereo not given)
Second: COC(=O)c1ccc(-c2nc(-c3ccc(C(C)(C)C)cc3)cs2)cc1
The melting point of the first is higher: 180 to 181 °C for the first, 154 to 155 °C for the second.

First: CC(C)Nc1nc(Cl)nc(NCCS)n1
Second: CCCc1nc(C(=O)OC)c(C(=O)OC)n1Cc1ccc(-c2ccccc2-c2nnn[nH]2)cc1
The melting point of the first is higher: 141 to 146 °C for the first, 124 to 126 °C for the second.

Compared with `NC(=O)c1cc(NCc2ccccc2)c([N+](=O)[O-])cc1[N+](=O)[O-]`, `O=C(Oc1ccc(Cl)cc1[N+](=O)[O-])c1ccccc1O` is higher in melting point: 143 to 146 °C for the first, 155 to 160 °C for the second.

First: COc1cc(-c2ccc(C(C)(C)C)s2)cc2oc(=O)c(C)c(C)c12
Second: COc1ncccc1Nc1c(NC(NC(=O)c2cccc(C)c2)C(C)(C)C)c(=O)c1=O (stereo not given)
The melting point of the first is lower: 137 °C for the first, 224 to 226 °C for the second.

Compared with `NC(=O)NCCC[C@H](NCC(O)C(O)C(O)C(O)CO)C(=O)O` (stereo not given in full), `NC(=NCC(F)(F)F)Nc1ccnc(SCCCNC(=O)c2ccco2)n1` is lower in melting point: 176 °C for the first, 127 to 129 °C for the second.

First: CCOC(=O)/C=C/c1cnn(C)c1-c1cccs1
Second: CCOC(=O)c1csc(Br)n1
The melting point of the first is higher: 73 to 74 °C for the first, 66 to 68 °C for the second.

First: COc1cc(OC)nc(Sc2sccc2NS(=O)(=O)CC#N)c1
Second: COc1cccc(CCCc2c(CC#N)ccc(OC)c2OC)c1
The melting point of the first is higher: 118 to 120 °C for the first, 78 to 79 °C for the second.

Compared with `O=C1NC(=O)C(=Cc2ccc3c(c2)CCC(Cc2ccccc2)N3Cc2ccccc2)S1` (stereo not given), `Cc1cc(C)c(NC(=O)N(Cc2ccccc2)CC2(c3ccccc3)CCCC2)c(C)c1` is higher in melting point: 199 to 201 °C for the first, 212 to 214 °C for the second.

First: CCC(C)(O)C(=O)Nc1ccc(S(=O)(=O)c2ccccc2)cc1 (stereo not given)
Second: CC(SCc1cc2cc(Cl)ccc2n1S(=O)(=O)c1ccccc1)C(=O)O (stereo not given)
The melting point of the first is higher: 163 to 165 °C for the first, 138 °C for the second.

First: CCOC(=O)NNC(=O)Nc1c(F)cc(F)cc1F
Second: CCOC(=O)CC(=O)c1cc(F)c(S(=O)c2ccccc2)nc1Nc1ccc(F)cc1F (stereo not given)
The melting point of the first is higher: 177 to 178 °C for the first, 105 to 106 °C for the second.

First: O=[N+]([O-])c1ccc(-c2nn(-c3ccccc3)cc2CO)o1
Second: O=C1CC(c2ccccc2)CC(=O)C1C(=O)c1ccc(Cl)cc1[N+](=O)[O-] (stereo not given)
The melting point of the first is higher: 148 to 149 °C for the first, 144 to 145 °C for the second.

Compared with `CCOC(=O)c1cnc2onc(C)c2c1OCC`, `CCOc1nc2cc(C)nn2c2c1cnc1c2cnn1CC` is higher in melting point: 62 °C for the first, 142 to 144 °C for the second.

First: COc1cc2c(NC3=CC(=O)C(Cl)=CC3=O)ncnc2cc1OCC1CCCCO1 (stereo not given)
Second: COc1cccc2c1[C@@H](Oc1cc(C(=O)N(C)C)cn3c(C)c(C)nc13)[C@H](O)C2 (relative stereo)
The melting point of the first is higher: 215 to 220 °C for the first, 129 °C for the second.

First: CC(C#N)N1CCC(C(=O)c2ccc(F)cc2)CC1 (stereo not given)
Second: Cn1c(CC#N)ccc1C(=O)c1ccc(Cl)cc1
The melting point of the first is higher: 127 °C for the first, 120 to 124 °C for the second.

First: COc1ccc(C2(O)CCN(CC3CN(c4cccc(OC)c4)C(=O)O3)CC2)cc1 (stereo not given)
Second: CN1CCN(C2=Nc3ccncc3Oc3ccccc32)CC1
The melting point of the first is higher: 158 to 160 °C for the first, 124 to 125 °C for the second.

First: BrCCCCCCCCn1nnc(-c2ccccc2)c1-c1ccccc1
Second: c1ccc(CNc2nc3ccccc3s2)cc1
The melting point of the first is lower: 90 to 91 °C for the first, 159 °C for the second.

First: COC(=O)c1ccccc1S(=O)(=O)NC(=O)c1cnc2c(C)cc(C)nn12
Second: CCCCOC(=O)Nc1ccc2cnn(Cc3ccc(C(=O)NS(=O)(=O)c4ccccc4)cc3OC)c2c1
The melting point of the first is higher: 210 to 212 °C for the first, 153 to 154 °C for the second.

First: COc1cccc2c(CCNC3COc4c(F)ccc(C(N)=O)c4C3)coc12 (stereo not given)
Second: CN(C)CCOC(=O)c1cc(F)ccc1Nc1ccnc2c(Cl)cccc12
The melting point of the first is higher: 172 to 174 °C for the first, 121 to 122 °C for the second.

First: COc1ccc(OC(F)(F)F)cc1[C@H]1CO[C@]2(CCCN[C@H]2c2ccccc2)C1
Second: Nc1ccc(Oc2ncc(-c3ccccc3)c(C(F)(F)F)n2)cc1
The melting point of the first is lower: 91 to 104 °C for the first, 123 to 126 °C for the second.

First: CCCc1nc2c(N)nc3cccnc3c2n1Cc1cc(-c2ccc(F)cc2)no1
Second: Cc1cc(F)ccc1-n1c(CF)nc2ccc(N)cc2c1=O
The melting point of the first is higher: 238 to 239 °C for the first, 193 to 196 °C for the second.

First: c1ccc(C[C@@H]2CN3C(c4nnn[nH]4)=Nc4nc(C5CCCC5)[nH]c4C3=N2)cc1
Second: CC1Cn2c(nc3c(c2=O)CCCC3)-c2[nH]c3ccccc3c21 (stereo not given)
The melting point of the first is higher: 268 to 270 °C for the first, 220 to 221 °C for the second.

First: COc1ccc2cc(C(C)CC(C)=O)cc(F)c2c1 (stereo not given)
Second: COC(=O)c1cc(C(=O)c2cccc(Cl)c2)cn1C
The melting point of the first is lower: 38 to 39 °C for the first, 126 °C for the second.

First: O=C(CCCCCCCCC1CO1)OCCOC(=O)CCCCCCCCC1CO1 (stereo not given)
Second: CCOC(=O)Cc1ccc(CCNC(=O)c2cc(C)ccc2OC)cc1
The melting point of the first is lower: 39 to 40 °C for the first, 83 to 85 °C for the second.

First: O=C(NOCC(O)CN1CCCCC1)NC1CCCCC1 (stereo not given)
Second: CSc1cccc(NC(=O)N(O)C2CCCCC2)c1
The melting point of the first is lower: 108 to 110 °C for the first, 147 to 148 °C for the second.

First: CC(CO)(CO)OCc1ccccc1
Second: O=C(O)C(O)(CC1CCCCC1)c1ccccc1 (stereo not given)
The melting point of the first is lower: 89.5 to 90 °C for the first, 138 to 140 °C for the second.

Compared with `C/C(=C\CC1OC(=O)NC1=O)c1cccc(Cc2nc(-c3ccccc3)oc2C)c1` (stereo not given), `O=C(O)c1cc(-c2ccccc2)c2sccc2c1` is higher in melting point: 138 to 139 °C for the first, 234 °C for the second.

First: Clc1ccsc1-c1nc(COc2ccc(CCCn3ccnc3)cc2)co1
Second: CC(C)SC(Cc1ccc(OCCN(C)c2nc3ccccc3o2)cc1)C(=O)O (stereo not given)
The melting point of the first is lower: 69 to 70 °C for the first, 144 to 145 °C for the second.

Compared with `Nc1nc(N)nc(-c2nccc3ccccc23)n1`, `O=C(O)Cc1cccc2c(-c3ccc(Cl)cc3)nccc12` is lower in melting point: over 250 °C for the first, 234 to 236 °C for the second.

First: CN(CCNC(=O)c1ccccc1)C(=O)c1ccccc1
Second: COC(=O)c1ccccc1Nc1ccccc1
The melting point of the first is higher: 121 °C for the first, 92.5 to 102 °C for the second.

Compared with `O=C(O)C1CCc2c([nH]c3ccc(O)cc23)C1` (stereo not given), `O=Cc1ccc(-c2cc(O)ccc2O)cc1` is lower in melting point: 255 to 257 °C for the first, 203 to 205 °C for the second.

First: CSC(=NC(=O)N(C)C)NC(=O)N(C)C
Second: CC(=O)C(=Cc1ccc(S(C)(=O)=O)cc1)C(C)=O
The melting point of the first is lower: 116 to 118 °C for the first, 139 to 140 °C for the second.

First: C#Cc1ccc(OC2CCCCO2)cc1 (stereo not given)
Second: CS(=O)(=O)c1ccc(C(CC2CCCC2)C(=O)O)cc1Br (stereo not given)
The melting point of the first is lower: 65 °C for the first, 149 to 150 °C for the second.

Compared with `CCn1cc(C(=O)O)c(=O)c2cc(F)c(N3CCN(C(=O)OC(OC(=O)C(C)c4ccc(CC(C)C)cc4)C(=O)OC(C)C)CC3)cc21` (stereo not given), `Cn1cc(C2=C(c3c4n(c5ccccc35)CC3CN(C(=O)OC(C)(C)C)CC3C4)C(=O)OC2=O)c2ccccc21` (stereo not given) is higher in melting point: 88 to 96.5 °C for the first, 265 to 266 °C for the second.

First: CCOC(=O)C1(C)C=C(O)c2c(sc3c2CCC2(C3)OCCO2)N1 (stereo not given)
Second: CON(C(=O)c1cn(C)nc1C(F)F)C(C)Cc1c(Cl)sc(Cl)c1Cl (stereo not given)
The melting point of the first is higher: 94 to 95 °C for the first, 70 to 72 °C for the second.

First: C=CCNC(=O)N1CC(Oc2cccc(Cl)c2)C1
Second: CC(C)(C)OC(=O)N1CCC2(CC1)c1ccccc1CS2=O (stereo not given)
The melting point of the first is lower: 87 to 89 °C for the first, 103 to 107 °C for the second.

Compared with `O=C(Nc1ccc(Br)cn1)Nc1cccc2c1C1CC3(CCN1C2=O)SCCS3` (stereo not given), `Cn1ncc(C(=O)N2CCOCC2)c1C(=O)Nc1ccn2nc(Br)nc2c1` is lower in melting point: 240 °C for the first, 198 to 214 °C for the second.

First: CC(=O)NNC(=O)c1ccncc1
Second: Cc1ccc(-c2cc(C(F)(F)F)n3ncc(-c4ccncc4)c3n2)cc1C(F)(F)F
The melting point of the first is lower: 158 to 160 °C for the first, 218 °C for the second.

Compared with `Cn1cc(-c2nnn[nH]2)c(=O)c2ccc(F)cc21`, `CCCOc1ccccc1C1=NC(=O)C2=NC(C(F)(F)F)=NC2=N1` is lower in melting point: 290 to 292 °C for the first, 255 to 260 °C for the second.

First: FC(F)(F)CNc1ccc2c(c1)N1CCCN=C1S2
Second: C#CCn1c(C(F)(F)F)nc2cc(F)c(-n3c(=O)cc(C(F)(F)F)n(C)c3=O)cc21
The melting point of the first is higher: 187 °C for the first, 104 to 105 °C for the second.
